According to paper PMC8213057, “Targeting ALK2: An Open Science Approach to Developing Therapeutics for the Treatment of Diffuse Intrinsic Pontine Glioma” (Journal of Medicinal Chemistry, 2020):
Like-named read-outs stand apart in the source and are kept apart here.

Key:
BRSK1 = molecular target: T1, BRSK1 (Homo sapiens, UniProt Q8TDC3); test: biochemical; settings: read-out: % enzyme activity, 1 μM; Run 1, Run 2
T1 sequence (Q8TDC3 1-778): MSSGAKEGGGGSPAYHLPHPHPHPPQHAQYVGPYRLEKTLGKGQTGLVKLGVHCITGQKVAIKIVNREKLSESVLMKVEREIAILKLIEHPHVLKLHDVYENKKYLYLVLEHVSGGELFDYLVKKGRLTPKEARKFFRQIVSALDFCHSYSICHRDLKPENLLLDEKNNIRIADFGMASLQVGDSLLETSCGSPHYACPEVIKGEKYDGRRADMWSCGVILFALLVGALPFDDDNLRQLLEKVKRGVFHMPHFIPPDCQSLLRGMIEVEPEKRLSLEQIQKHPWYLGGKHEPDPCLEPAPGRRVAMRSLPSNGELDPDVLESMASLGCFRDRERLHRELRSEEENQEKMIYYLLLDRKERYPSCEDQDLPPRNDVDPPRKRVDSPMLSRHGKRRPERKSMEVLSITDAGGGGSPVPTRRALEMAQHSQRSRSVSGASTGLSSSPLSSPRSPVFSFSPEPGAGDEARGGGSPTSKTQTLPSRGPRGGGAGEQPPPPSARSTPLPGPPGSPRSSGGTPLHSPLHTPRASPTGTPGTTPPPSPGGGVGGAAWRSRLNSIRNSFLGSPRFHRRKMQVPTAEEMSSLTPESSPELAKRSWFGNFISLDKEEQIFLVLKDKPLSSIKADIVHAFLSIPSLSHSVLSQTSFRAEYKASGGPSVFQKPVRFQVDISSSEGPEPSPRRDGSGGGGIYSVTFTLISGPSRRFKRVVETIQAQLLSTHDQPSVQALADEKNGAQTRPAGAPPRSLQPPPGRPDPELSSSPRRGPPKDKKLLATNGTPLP

STK21/CIT = STK21/CIT (Homo sapiens, UniProt O14578); test: biochemical; settings: read-out: % enzyme activity, 1 μM; Run 1, Run 2
CSK = CSK (Homo sapiens, UniProt P41240); test: biochemical; settings: read-out: % enzyme activity, 1 μM; Run 1, Run 2
LRRK2 = LRRK2 (Homo sapiens, UniProt Q5S007); settings: 1 μM; Run 1, Run 2
MAST3 = MAST3 (Homo sapiens, UniProt O60307); settings: 1 μM; Run 1, Run 2
ALK = ALK (Homo sapiens, UniProt Q9UM73); settings: 1 μM; Run 1, Run 2
CYP3A4 = CYP3A4 (Homo sapiens, UniProt P08684); settings: human liver microsomes
CHK2 = CHK2 (Homo sapiens, UniProt O96017); settings: 1 μM; Run 1, Run 2
EPHA8 = molecular target: T2, EPHA8 (Homo sapiens, UniProt P29322); test: biochemical; settings: read-out: % enzyme activity, 1 μM; Run 1, Run 2
T2 sequence (P29322 28-1005): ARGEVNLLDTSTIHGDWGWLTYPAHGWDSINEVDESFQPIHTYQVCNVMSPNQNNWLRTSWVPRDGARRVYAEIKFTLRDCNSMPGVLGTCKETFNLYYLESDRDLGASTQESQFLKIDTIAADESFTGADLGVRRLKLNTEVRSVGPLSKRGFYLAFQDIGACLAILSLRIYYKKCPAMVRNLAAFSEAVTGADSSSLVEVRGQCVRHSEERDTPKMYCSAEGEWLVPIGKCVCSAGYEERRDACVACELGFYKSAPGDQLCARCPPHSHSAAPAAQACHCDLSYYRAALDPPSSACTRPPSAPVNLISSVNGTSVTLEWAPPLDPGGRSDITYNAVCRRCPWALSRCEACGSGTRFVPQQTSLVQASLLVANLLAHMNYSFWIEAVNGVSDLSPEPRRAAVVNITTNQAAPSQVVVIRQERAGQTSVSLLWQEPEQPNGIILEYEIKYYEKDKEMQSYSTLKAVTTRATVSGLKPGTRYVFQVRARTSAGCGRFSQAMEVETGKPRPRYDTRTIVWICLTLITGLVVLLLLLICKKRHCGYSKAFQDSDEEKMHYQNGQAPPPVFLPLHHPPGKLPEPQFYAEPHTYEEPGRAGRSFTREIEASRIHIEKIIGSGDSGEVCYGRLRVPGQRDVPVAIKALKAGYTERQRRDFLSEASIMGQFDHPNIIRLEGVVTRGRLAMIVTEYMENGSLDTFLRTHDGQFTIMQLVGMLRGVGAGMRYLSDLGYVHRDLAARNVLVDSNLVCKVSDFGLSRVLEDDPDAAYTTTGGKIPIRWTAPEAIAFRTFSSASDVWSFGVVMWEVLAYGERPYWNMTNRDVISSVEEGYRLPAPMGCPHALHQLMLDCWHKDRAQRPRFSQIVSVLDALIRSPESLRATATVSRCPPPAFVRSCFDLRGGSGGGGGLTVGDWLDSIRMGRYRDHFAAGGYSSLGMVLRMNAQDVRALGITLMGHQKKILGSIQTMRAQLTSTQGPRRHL

GRK3 = molecular target: T3, GRK3 (Homo sapiens, UniProt P35626); settings: 1 μM; Run 1, Run 2
T3 sequence (P35626 1-688): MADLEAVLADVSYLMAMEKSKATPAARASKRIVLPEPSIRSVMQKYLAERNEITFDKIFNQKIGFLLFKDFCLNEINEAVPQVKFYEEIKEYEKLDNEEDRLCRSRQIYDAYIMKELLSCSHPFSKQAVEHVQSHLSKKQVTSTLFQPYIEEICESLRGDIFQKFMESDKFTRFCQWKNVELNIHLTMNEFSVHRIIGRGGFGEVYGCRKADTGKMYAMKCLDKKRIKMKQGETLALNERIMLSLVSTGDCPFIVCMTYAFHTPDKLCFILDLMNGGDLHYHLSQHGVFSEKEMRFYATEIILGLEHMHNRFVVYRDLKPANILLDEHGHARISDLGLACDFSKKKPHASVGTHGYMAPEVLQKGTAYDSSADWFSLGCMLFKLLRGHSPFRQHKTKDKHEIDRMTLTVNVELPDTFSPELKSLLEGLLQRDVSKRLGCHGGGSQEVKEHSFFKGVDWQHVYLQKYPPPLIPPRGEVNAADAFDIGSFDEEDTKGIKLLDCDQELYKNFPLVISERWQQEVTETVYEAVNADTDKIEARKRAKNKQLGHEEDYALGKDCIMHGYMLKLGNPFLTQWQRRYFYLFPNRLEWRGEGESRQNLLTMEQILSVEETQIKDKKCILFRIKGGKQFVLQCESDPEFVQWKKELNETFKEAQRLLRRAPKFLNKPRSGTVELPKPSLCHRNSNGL

BRK = BRK (Homo sapiens, UniProt Q13882); settings: 1 μM; Run 1, Run 2
[1] = read-out: CYP3A4-Midazolam IC50, substrate midazolam
[2] = read-out: CYP3A4-Testosterone IC50, substrate testosterone

Chain of CYP3A4 (P08684 whole entry): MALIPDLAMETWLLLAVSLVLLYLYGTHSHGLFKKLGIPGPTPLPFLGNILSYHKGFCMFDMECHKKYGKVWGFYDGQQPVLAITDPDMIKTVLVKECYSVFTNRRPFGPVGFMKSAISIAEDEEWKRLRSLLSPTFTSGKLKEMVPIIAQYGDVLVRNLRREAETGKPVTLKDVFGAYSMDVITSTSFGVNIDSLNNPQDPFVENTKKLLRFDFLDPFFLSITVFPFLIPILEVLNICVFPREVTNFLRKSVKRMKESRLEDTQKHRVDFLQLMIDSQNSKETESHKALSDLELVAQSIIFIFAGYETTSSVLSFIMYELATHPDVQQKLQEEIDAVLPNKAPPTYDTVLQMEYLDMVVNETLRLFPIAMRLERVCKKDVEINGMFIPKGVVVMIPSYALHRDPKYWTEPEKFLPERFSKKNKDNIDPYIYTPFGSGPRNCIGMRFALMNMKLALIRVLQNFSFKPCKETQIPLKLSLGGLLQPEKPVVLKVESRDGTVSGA
Chain of STK21/CIT (O14578 whole entry): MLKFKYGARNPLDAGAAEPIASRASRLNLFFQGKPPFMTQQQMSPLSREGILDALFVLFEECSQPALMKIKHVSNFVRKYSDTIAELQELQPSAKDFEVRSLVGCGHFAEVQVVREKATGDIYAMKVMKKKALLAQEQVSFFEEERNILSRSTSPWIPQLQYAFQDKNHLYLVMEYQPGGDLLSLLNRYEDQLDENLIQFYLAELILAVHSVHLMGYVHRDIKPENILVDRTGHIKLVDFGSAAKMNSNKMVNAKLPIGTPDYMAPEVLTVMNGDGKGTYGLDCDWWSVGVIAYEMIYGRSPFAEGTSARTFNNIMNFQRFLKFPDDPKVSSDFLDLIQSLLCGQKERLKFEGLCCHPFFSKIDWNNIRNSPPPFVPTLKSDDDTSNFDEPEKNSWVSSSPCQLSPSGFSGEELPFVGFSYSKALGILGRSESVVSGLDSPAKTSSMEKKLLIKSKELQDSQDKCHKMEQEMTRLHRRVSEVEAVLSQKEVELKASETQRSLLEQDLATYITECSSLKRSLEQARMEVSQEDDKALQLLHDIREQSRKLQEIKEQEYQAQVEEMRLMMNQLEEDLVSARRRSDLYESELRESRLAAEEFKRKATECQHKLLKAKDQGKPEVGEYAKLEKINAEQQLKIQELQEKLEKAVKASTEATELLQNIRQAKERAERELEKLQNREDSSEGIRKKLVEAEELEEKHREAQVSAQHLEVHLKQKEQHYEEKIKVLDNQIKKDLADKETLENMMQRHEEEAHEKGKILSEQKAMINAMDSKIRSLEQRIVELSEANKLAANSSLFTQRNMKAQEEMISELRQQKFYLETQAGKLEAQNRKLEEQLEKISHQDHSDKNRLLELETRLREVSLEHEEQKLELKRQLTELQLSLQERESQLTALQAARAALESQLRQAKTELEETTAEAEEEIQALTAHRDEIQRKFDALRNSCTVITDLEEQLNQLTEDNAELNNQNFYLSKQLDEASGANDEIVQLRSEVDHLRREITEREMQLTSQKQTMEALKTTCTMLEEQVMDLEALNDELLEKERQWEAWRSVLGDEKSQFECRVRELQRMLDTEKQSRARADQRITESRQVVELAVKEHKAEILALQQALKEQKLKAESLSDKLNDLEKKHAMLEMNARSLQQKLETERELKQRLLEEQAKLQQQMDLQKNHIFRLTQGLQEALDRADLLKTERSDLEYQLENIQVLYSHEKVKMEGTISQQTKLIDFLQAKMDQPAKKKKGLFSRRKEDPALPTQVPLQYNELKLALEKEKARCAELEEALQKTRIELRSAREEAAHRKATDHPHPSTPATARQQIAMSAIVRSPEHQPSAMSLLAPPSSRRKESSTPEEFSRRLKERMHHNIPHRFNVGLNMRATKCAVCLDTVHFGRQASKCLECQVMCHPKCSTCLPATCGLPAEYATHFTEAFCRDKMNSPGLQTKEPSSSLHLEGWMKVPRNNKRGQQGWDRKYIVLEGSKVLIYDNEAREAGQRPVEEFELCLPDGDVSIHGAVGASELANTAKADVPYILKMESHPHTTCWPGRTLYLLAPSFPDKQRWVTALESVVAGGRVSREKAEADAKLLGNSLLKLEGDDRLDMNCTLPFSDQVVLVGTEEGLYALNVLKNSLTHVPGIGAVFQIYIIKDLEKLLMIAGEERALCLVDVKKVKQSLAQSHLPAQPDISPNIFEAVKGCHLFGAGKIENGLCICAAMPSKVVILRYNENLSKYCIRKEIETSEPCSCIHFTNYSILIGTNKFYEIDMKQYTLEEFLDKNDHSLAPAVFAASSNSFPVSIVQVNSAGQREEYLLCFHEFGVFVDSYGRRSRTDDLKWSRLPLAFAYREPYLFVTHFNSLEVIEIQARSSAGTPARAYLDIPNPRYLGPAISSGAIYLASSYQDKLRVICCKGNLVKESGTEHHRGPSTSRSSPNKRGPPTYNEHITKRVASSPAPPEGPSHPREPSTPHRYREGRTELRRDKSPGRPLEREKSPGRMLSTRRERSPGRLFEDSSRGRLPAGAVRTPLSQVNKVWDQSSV
Chain of MAST3 (O60307 whole entry): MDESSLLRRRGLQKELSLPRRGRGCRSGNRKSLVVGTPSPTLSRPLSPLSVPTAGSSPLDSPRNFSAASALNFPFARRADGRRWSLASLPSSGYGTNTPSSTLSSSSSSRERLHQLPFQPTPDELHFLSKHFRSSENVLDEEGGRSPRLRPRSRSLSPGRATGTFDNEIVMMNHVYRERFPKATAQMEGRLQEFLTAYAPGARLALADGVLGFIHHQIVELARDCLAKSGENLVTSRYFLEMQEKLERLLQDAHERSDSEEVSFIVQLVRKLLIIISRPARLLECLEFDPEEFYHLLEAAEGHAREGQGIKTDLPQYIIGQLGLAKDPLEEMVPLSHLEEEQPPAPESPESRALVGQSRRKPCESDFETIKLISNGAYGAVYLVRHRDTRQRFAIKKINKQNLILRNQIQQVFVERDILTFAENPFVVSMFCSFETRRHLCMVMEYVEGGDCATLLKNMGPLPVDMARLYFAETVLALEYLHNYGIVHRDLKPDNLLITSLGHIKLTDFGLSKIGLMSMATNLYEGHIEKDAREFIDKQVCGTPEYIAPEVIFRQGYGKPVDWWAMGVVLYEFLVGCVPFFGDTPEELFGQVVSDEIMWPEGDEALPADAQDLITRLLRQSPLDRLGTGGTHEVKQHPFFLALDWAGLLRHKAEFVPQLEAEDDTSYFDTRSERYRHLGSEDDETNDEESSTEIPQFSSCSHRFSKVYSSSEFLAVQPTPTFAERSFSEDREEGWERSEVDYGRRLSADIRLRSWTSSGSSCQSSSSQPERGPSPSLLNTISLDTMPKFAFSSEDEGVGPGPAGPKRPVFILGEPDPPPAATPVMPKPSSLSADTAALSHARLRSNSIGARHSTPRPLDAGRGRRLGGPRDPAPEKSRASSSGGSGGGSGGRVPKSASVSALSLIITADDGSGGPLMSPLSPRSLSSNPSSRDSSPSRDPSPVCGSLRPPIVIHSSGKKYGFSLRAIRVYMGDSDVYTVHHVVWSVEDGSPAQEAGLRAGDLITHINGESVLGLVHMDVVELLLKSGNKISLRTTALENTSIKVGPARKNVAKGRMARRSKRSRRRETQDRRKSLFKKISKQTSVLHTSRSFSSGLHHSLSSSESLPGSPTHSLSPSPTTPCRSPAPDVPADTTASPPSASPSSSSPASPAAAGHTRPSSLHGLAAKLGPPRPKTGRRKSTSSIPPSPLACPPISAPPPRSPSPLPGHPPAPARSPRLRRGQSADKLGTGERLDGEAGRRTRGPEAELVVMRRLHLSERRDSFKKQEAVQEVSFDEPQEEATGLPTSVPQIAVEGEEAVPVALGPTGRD
Chain of CSK (P41240 whole entry): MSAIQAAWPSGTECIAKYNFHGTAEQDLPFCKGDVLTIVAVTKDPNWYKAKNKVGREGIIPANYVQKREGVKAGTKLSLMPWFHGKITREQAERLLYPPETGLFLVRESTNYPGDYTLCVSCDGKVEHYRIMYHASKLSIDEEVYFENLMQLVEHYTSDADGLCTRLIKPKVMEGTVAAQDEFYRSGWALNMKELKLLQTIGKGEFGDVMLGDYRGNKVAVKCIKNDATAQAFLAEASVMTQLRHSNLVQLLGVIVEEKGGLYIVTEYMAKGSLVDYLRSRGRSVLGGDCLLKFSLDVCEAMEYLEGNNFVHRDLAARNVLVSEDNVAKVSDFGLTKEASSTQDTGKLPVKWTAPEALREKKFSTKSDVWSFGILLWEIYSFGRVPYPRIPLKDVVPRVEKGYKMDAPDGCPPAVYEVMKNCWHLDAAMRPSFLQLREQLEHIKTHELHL
Chain of CHK2 (O96017 whole entry): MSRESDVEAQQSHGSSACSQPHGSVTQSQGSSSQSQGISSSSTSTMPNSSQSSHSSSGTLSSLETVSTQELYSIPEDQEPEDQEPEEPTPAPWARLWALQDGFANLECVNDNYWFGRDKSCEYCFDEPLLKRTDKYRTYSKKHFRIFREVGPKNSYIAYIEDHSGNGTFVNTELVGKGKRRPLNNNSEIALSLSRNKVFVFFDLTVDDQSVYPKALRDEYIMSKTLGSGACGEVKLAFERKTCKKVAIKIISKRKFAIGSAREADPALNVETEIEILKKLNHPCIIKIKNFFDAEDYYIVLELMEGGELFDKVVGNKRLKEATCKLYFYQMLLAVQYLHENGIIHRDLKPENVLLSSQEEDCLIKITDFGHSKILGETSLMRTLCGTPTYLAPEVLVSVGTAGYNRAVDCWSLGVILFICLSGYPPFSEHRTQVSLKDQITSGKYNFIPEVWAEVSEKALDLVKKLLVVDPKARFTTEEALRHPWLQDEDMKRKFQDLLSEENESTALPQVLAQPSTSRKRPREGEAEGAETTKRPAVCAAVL

Row | Structure (SMILES) | remaining activity at 1 µM (BRSK1) [%] | remaining activity at 1 µM (STK21/CIT) [%] | remaining activity at 1 µM (CSK) [%] | % enzyme activity (LRRK2) [%] | % enzyme activity (MAST3) [%] | % enzyme activity (ALK) [%] | IC50 (CYP3A4; [1]) [µM] | IC50 (CYP3A4; [2]) [µM] | % enzyme activity (CHK2) [%] | remaining activity at 1 µM (EPHA8) [%] | % enzyme activity (GRK3) [%] | % enzyme activity (BRK) [%]
1 | COc1cc(-c2cncc(-c3ccc(N4C[C@@H](C)N(C)[C@@H](C)C4)cc3)c2C)cc(F)c1C(N)=O [Compound 26c, 2-Fluoro-6-methoxy-4-(4-methyl-5-(4-((3R,5S)-3,4,5-trimethylpiperazin-1-yl)phenyl)pyridin-3-yl)benzamide] | 84 | 89.1 | 104 | 77.27 | 95.17 | 96.51 | > 50 | > 50 | 101.19 | 97.5 | 95.20 | 73.52
2 | COc1cc(-c2cncc(-c3ccc(N4CCN(C)CC4)cc3)c2C)cc(F)c1C(N)=O [Compound 26a, 2-Fluoro-6-methoxy-4-(4-methyl-5-(4-(4-methylpiperazin-1-yl)phenyl)pyridin-3-yl)benzamide] | 84.7 | 88.8 | 99.5 | 59.73 | 93.52 | 99.31 | > 50 | > 50 | 99.41 | 95.3 | 94.07 | 58.28
